Ends that are not written are not given here.
How the values were obtained:
C1 mAb and M2.139 mAb = experiment: Immunoreactivity of conformation dependent monoclonal antibodies on coated microtiter wells; assay type: binding, mouse; conditions: compared with native CII (FIG. 8)
Experimental: Microtiter plates (Nunc, Wiesbaden, Germany) were coated overnight with [(Gly-Pro-Hyp)5-CII(358-366Hyp-369)-(Gly-Pro-Hyp)2]3LAhx or [(Gly-Pro-Hyp)5-CII(551-552Hyp-564)-(Gly-Pro-Hyp)2]3LAhx at 4° C. and blocked with 2% BSA in phosphate buffered saline (PBS, pH 7.4) for one hour. The presentation of a native collagen conformation on the plastic surface of the microtiter well was controlled by the immunoreactivity of two mouse monoclonal antibodies (C1 mAb having specificity for the CII(358-369) region and M2.139 mAb having specificity for the CII(551-564) region) that recognize the CII epitopes in a conformation dependent manner as confirmed in FIG. 8. Identical titration curves for the native CII and the synthetic polypeptides indicate that the synthetic polypeptides have a perfect image of the conformational epitope. […] Heat denaturation was achieved by heating the CII polypeptide to greater than 50° C. for two hours prior to the coating of the microtiter wells.

CD4+ T cells = experiment: IL-2 response of CD4+ T cells upon in vitro stimulation, two-color flow cytometry; assay type: cell-based, human; conditions: 10 μg per mL plus anti-CD28
[1] = test system: monoclonal anti-CII antibody 146.50; experiment: ELISA, coated polypeptide complexes capture anti-CII monoclonal antibody; assay type: binding; conditions: monoclonal antibody 146.50, Rat; coated wells
From the text: (§1) Triple helical polypeptide complexes [(Gly-Pro-Hyp)5-CII(358-366Hyp-369)-(Gly-Pro-Hyp)2]3LAhx, [(Gly-Pro-Hyp)5-CII(259-273Hyp-274)-(Gly-Pro-Hyp)2]3LAhx, [(Gly-Pro-Hyp)5-CII(259-273Hyp-274)-CII(359-366Hyp)-(Gly-Pro-Hyp)2]3LAhx, [(Gly-Pro-Hyp)5-CII(494-504Hyp)-(Gly-Pro-Hyp)2]3LAhx, and [(Gly-Pro-Hyp)5-CII(551-552Hyp-564)-(Gly-Pro-Hyp)2]3LAhx were used in an ELISA to detect anti-CII-antibodies. Specifically, Immulon2 HB (Dynex/Technologies Inc., USA) plates were coated with [(Gly-Pro-Hyp)5-CII(358-366Hyp-369)-(Gly-Pro-Hyp)2]3LAhx, [(Gly-Pro-Hyp)5-CII(259-273Hyp-274)-(Gly-Pro-Hyp)2]3LAhx, [(Gly-Pro-Hyp)5-CII(259-273Hyp-274)-CII(359-366Hyp)-(Gly-Pro-Hyp)2]3LAhx, [(Gly-Pro-Hyp)5-CII(494-504Hyp)-(Gly-Pro-Hyp)2]3LAhx, and [(Gly-Pro-Hyp)5-CII(551-552Hyp-564)-(Gly-Pro-Hyp)2]3LAhx in a volume of 50 μL/well and at a concentration of 5 μg/mL. Wells coated with native rat CII (rCII; 10 μg/mL) were used as a positive control, while negative controls included wells coated with native rat type I collagen (rCI; 10 μg/mL) and wells coated with phosphate-buffered saline (PBS; pH 7.4).
(§2) After coating, the plates were incubated for at least one hour in a humid chamber at 4° C. After incubation, the plates were washed three times with PBS using an automatic microtiter plate-washing device (Skan Washer 300, Skatron instruments) and incubated with 50 μL/well of bovine serum albumin (BSA; Sigma, St. Louis, Mo.; 10 mg/mL in PBS) for two hours at 20° C. The wells were washed five times with PBS using ELISA washing equipment (Skatron, Norway) and incubated with a monoclonal anti-CII antibody (50 μL/well in titrated concentrations) for two hours at 20° C. After this two hour incubation, the plates were washed with PBS-Tween and incubated with a secondary enzyme-labeled antibody for two hours at 20° C. For detection of mouse antibodies, peroxidase labeled goat anti-mouse IgG (H+L) (Jackson ImmunoResearch Laboratories, Inc., USA) were used. For detection of rat antibodies, peroxidase labeled goat anti-rat IgG (H+L) (Jackson ImmunoResearch Laboratories, Inc. USA) were used.
(§3) After washing the wells with PBS, the assay was developed using the ABTS system (Boehringer-Mannheim, Mannheim, Germany), and the absorbance levels determined at 405 nm (ELISA reader, Titertek). Titers and concentrations of the monoclonal antibodies were calculated using limiting dilution (ELISA software: HyperELISA 3.0).

[2] = test system: monoclonal anti-CII antibody 145.322; experiment: as above; assay type: binding; conditions: monoclonal antibody 145.322, Rat; coated wells
From the text: as §1, §2, §3

[3] = test system: monoclonal anti-CII antibody EB2; experiment: as above; assay type: binding; conditions: monoclonal antibody EB2, Mouse; coated wells
From the text: as §1, §2, §3

[4] = test system: monoclonal anti-CII antibody EB63; experiment: as above; assay type: binding; conditions: monoclonal antibody EB63, Mouse; coated wells
From the text: as §1, §2, §3

[5] = test system: monoclonal anti-CII antibody M2 84; experiment: as above; assay type: binding; conditions: monoclonal antibody M2 84, Mouse; coated wells
From the text: as §1, §2, §3

[6] = test system: monoclonal anti-CII antibody 122.9; experiment: as above; assay type: binding; conditions: monoclonal antibody 122.9, Rat; coated wells
From the text: as §1, §2, §3

[7] = test system: monoclonal anti-CII antibody 126.35; experiment: as above; assay type: binding; conditions: monoclonal antibody 126.35, Rat; coated wells
From the text: as §1, §2, §3

[8] = test system: monoclonal anti-CII antibody M2 139; experiment: as above; assay type: binding; conditions: monoclonal antibody M2 139, Mouse; coated wells
From the text: as §1, §2, §3

[9] = test system: monoclonal anti-CII antibody M2 76; experiment: as above; assay type: binding; conditions: monoclonal antibody M2 76, Mouse; coated wells
From the text: as §1, §2, §3

[10] = test system: monoclonal anti-CII antibody 125.5; experiment: as above; assay type: binding; conditions: monoclonal antibody 125.5, Rat; coated wells
From the text: as §1, §2, §3

[11] = test system: monoclonal anti-CII antibody M2 87; experiment: as above; assay type: binding; conditions: monoclonal antibody M2 87, Mouse; coated wells
From the text: as §1, §2, §3

[12] = test system: monoclonal anti-CII antibody 126.30; experiment: as above; assay type: binding; conditions: monoclonal antibody 126.30, Rat; coated wells
From the text: as §1, §2, §3

[13] = test system: monoclonal anti-CII antibody M2 88; experiment: as above; assay type: binding; conditions: monoclonal antibody M2 88, Mouse; coated wells
From the text: as §1, §2, §3

[14] = test system: HCQ.4 T cell hybridoma cells; experiment: T cell hybridoma stimulation with Langerhans cells, IL-2 by CTLL assay; assay type: cell-based, mice; conditions: 10 μg/mL, Langerhans cells as antigen presenting cells, 24 hours (FIG. 3)
Experimental: Langerhans cells (dendritic cells) were prepared from ear skin of B10Q×DBA/1 mice and purified with selection on N418 marker. Once purified, Langerhans cells were mixed with HCQ.4 T cell hybridoma cells (1×10^5 cell/well), and the mixture incubated with media containing 10 μg/mL of [(Gly-Pro-Hyp)5-CII(259-274)-(Gly-Pro-Hyp)2]3LAhx (a linked polypeptide), CII(259-270) (an unlinked polypeptide), or native rat CII for 24 hours. After the 24-hour incubation, 0.5 μCi ^3H-thymidine/well (Radiochemical Centre, Amersham,UK) was added, and the cells incubated for an additional 18 hours. After this incubation, the supernatants were assayed for IL-2 content using a CTLL assay. Results were presented as means of duplicates.

[15] = test system: C3H.Q mice, arthritis induced with rat CII; experiment: Vaccination of adult mice, arthritis induced with rat CII; assay type: in vivo
Experimental: Male and female C3H.Q mice were used in two separate experiments. In each experiment, adult mice 8–12 weeks old were injected intradermally at the base of the tail with CII(256-270) (unlinked polypeptides), [(Gly-Pro-Hyp)5-CII(259-274)-(Gly-Pro-Hyp)2]3LAhx (linked polypeptides), or PBS. Specifically, each mouse received 100 μL of PBS or 100 μL of polypeptide (100 μg) emulsified in incomplete Freund's adjuvant.
After three weeks, the mice were treated with rat CII emulsified in complete Freund's adjuvant. Specifically, each mouse received 100 μL containing 100 μg of rat CII injected intradermally around the base of the tail. […] In addition, five weeks after treating the mice with rat CII, blood samples were collected to determine the antibody response.

[16] = test system: CII(256-270)/Aq-specific T cell hybridoma cells; experiment: Antigen presentation, IL-2 production of T cell hybridoma measured by ELISA; assay type: cell-based, mice
Experimental: Antigen-presentation of polypeptides and triple helical polypeptide complexes was studied using A^q-restricted HDQ.9, A^q-restricted HRC.2, A^q-restricted HCQ.4, and DR4-restricted 1259 T cell hybridomas. Briefly, A^q-restricted spleen cells were derived from DBA/1 mice, and DR4-restricted spleen cells were derived from DR4^+/_H-2^−/_mice. T cell hybridoma cells (5×10^4 cells/well) were incubated with polypeptides and polypeptide complexes (20 μg/mL, dilution 1:5) and 5×10^5 spleen cells per well (normal or fixed in 1% paraformaldehyde for 15 min at room temperature) in a volume of 200 μL in 96-well plates for 24 hours. The reactivity of the hybridoma cells toward the polypeptides and triple helical polypeptide complexes, reflected by IL-2 production, was measured by ELISA using europium-labeled streptavidin (WALLAC, Turku).

HCQ.4 hybridoma = experiment: Detection of transgenic CII from skin grafts by T cell hybridoma, CTLL assay; assay type: cell-based, mice; conditions: HCQ.4, specific for non-glycosylated CII(256-270)
Experimental: (§4) T cell hybridomas HCQ.4 and HCQ.10, specific for CII(256-270) without posttranslational modification and with glucose on hydroxylysin at position K264 respectively, were used to detect transgenic […] prepared from TSC or recipients grafts at the end of arthritis experiments as described earlier (Michaelsson et al., J. Exp. Med., 180:745–749 (1994) and Corthay et al., Eur. J. Immunol., 28:2580–2590 (1998)). Briefly, syngeneic spleen cells were incubated with titrated amount of antigen at 5×10^5/mL together with the hybridoma cells at 5×10^4/mL. The interleukin-2 production was detected after 24 hours by transferring 100 μL of the supernatant to new plates. Plates were snap-frozen to avoid any contamination of living cells before addition of 10^4 CTLL/well. CTLL were incubated for 24 hours before thymidine-labeling and harvesting 15–18 hours later.

HCQ.10 hybridoma = experiment: as above; assay type: cell-based, mice; conditions: HCQ.10, specific for glycosylated CII(256-270)
Experimental: as §4

“heat denatured CII: CII polypeptide heated to greater than 50° C. for two hours prior to coating” was tested, and the “binding of C1 mAb / M2.139 mAb, titration curves” value (C1 mAb and M2.139 mAb) was “does not bind”.

With tetanus toxoid [TT] the “IL-2 response of CD4+ T cells (percent of IL-2-producing CD4+ T cells)” value (CD4+ T cells; patient RA 1) was 0.38%, the “IL-2 response of CD4+ T cells (percent of IL-2-producing CD4+ T cells)” value (CD4+ T cells; patient RA 2) was 0.61% and the “IL-2 response of CD4+ T cells (percent of IL-2-producing CD4+ T cells)” value (CD4+ T cells; patient RA 3) was 0.20%.

With “rCII: native rat type II collagen, positive control” the “end point titer value in ng antibody/mL” value [1] was 100 ng antibody/mL, the “end point titer value in ng antibody/mL” value [2] was 100 ng antibody/mL and the “end point titer value in ng antibody/mL” value [3] was <10 ng antibody/mL. The “end point titer value in ng antibody/mL” value [4] was 100 ng antibody/mL, the “end point titer value in ng antibody/mL” value [5] was 10 ng antibody/mL and the “end point titer value in ng antibody/mL” value [6] was 10 ng antibody/mL. The “end point titer value in ng antibody/mL” value [7] was 10 ng antibody/mL, the “end point titer value in ng antibody/mL” value [8] was 10 ng antibody/mL and the “end point titer value in ng antibody/mL” value [9] was 10 ng antibody/mL. The “end point titer value in ng antibody/mL” value [10] was 10 ng antibody/mL, the “end point titer value in ng antibody/mL” value [11] was 10 ng antibody/mL and the “end point titer value in ng antibody/mL” value [12] was 10 ng antibody/mL. The “end point titer value in ng antibody/mL” value [13] was 10 ng antibody/mL and the “stimulation of T cells (IL-2 content, CTLL assay, CPM)” value [14] was “did not”.

With “[(Gly-Pro-Hyp)5-CII(259-274)-(Gly-Pro-Hyp)2]3LAhx [linked polypeptide composition]” the development of arthritis ([15]; adult C3H.Q mice, 100 μg intradermally in incomplete Freund's adjuvant (FIG. 6)) was “abrogated development of arthritis”, the antibody response ([15]; five weeks after treating the mice with rat CII) was “lower” and the “stimulation of T cells (IL-2 content, CTLL assay, CPM)” value [14] was “stimulated T cells”.

For “GEPGIAGFKGEQGPK [CII(256-270), non-glycosylated, unlinked polypeptide]”, the “stimulation of T cell hybridoma cells (IL-2 production)” value ([16]; non-fixed APC) was “potent stimulators” and the “stimulation of T cell hybridoma cells (IL-2 production)” value ([16]; presented by formalin-fixed spleen cells (FIGS. 25–26)) was “stimulated”.

“whole CII protein: whole type II collagen protein” was tested, and the “stimulation of hybridoma (IL-2, CTLL assay)” value (HCQ.4 hybridoma) was “respond” and the “stimulation of hybridoma (IL-2, CTLL assay)” value (HCQ.10 hybridoma) was “respond”.

Source: patent publication US7148020B2, “Triple polypeptide complexes” (Arexis AB, priority 2001, dated 2006)
